From ChEMBL document CHEMBL1131968, “P'-extended alpha-ketoamide inhibitors of proteasome” (Bioorg Med Chem Lett, 1999) come the findings set out here.

SMILES strings stand for the structures. pKi: −log10 of the molar value.

Holding throughout (assay type): subcellular
The subject of experiment [1] is Proteasome. The experiment is described as follows: Inhibitory activity against proteasome at 1 uM concentration.
Experiment [2] concerns the target Proteasome. The experiment is described as follows: Inhibitory activity against proteasome.
For experiment [3], the system named is Proteasome. The experiment is described as follows: Inhibitory activity against proteasome at 100 nM concentration.
Experiment [4] concerns Proteasome. Nature of the experiment: Inhibitory activity against proteasome at 10 uM concentration.

The term inhibition denotes the percentage by which the read-out fell short of the control. Read a high inhibition as a strong effect. Consider `N/C(=N/CCCC(NC(=O)OCc1ccccc1)C(=O)N[C@@H](Cc1ccccc1)C(=O)C(=O)NCCNS(=O)(=O)c1ccccc1)N[N+](=O)[O-]` (stereo partly drawn), for which, in the experiment with Proteasome [1], the inhibition was determined as 34%.

Broadly, the pKi is the negative decadic logarithm of the Ki, by convention in mol/L. With `O=C(NCCNS(=O)(=O)c1ccccc1)C(=O)[C@H](Cc1ccccc1)NC(=O)[C@H](CCCCNC(=O)c1cnccn1)NC(=O)C(CCCCCCCCN1C(=O)c2ccccc2C1=O)C1CCCC1` (stereo partly drawn), the pKi at Proteasome [2] is 7.10.

As to `N=C(N)NCCC[C@H](NC(=O)C(CCCCCCCCN1C(=O)c2ccccc2C1=O)C1CCCC1)C(=O)N[C@@H](Cc1ccccc1)C(=O)C(=O)NCCNS(=O)(=O)c1ccccc1` (stereo partly drawn), the inhibition with Proteasome [3] turned out to be 31%.

Regarding `CC(C)(C)OC(=O)NCCNC(=O)C(=O)[C@H](Cc1ccccc1)NC(=O)[C@H](CCC/N=C(\N)N[N+](=O)[O-])NC(=O)C(CCCCCCCCN1C(=O)c2ccccc2C1=O)C1CCCC1` (stereo partly drawn), on Proteasome [2], the pKi was 8.66.

`N/C(=N\CCC[C@H](NC(=O)C(CCCCCCCCN1C(=O)c2ccccc2C1=O)C1CCCC1)C(=O)N[C@@H](Cc1ccccc1)C(=O)C(=O)NCCNS(=O)(=O)c1ccccc1)N[N+](=O)[O-]` (stereo partly drawn) showed a negative logarithm of the Ki (pKi) on Proteasome [2] of 8.96.

`NCCCC[C@H](NC(=O)C(CCCCCCCCN1C(=O)c2ccccc2C1=O)C1CCCC1)C(=O)N[C@@H](Cc1ccccc1)C(=O)C(=O)NCCNS(=O)(=O)c1ccccc1` (stereo partly drawn): the pKi at Proteasome [2] was 7.66.

`NCCNC(=O)C(=O)[C@H](Cc1ccccc1)NC(=O)[C@H](CCC/N=C(\N)N[N+](=O)[O-])NC(=O)C(CCCCCCCCN1C(=O)c2ccccc2C1=O)C1CCCC1` (stereo partly drawn) showed a pKi on Proteasome [2] of 7.17.

Consider `CC(C)(C)OC(=O)/N=C(\NCCC[C@H](NC(=O)C(CCCCCCCCN1C(=O)c2ccccc2C1=O)C1CCCC1)C(=O)N[C@@H](Cc1ccccc1)C(=O)C(=O)NCCNS(=O)(=O)c1ccccc1)NC(=O)OC(C)(C)C` (stereo partly drawn), for which the inhibition with Proteasome [3] is 34%.

With `CC(C)(C)OC(=O)NCCCC[C@H](NC(=O)C(CCCCCCCCN1C(=O)c2ccccc2C1=O)C1CCCC1)C(=O)N[C@@H](Cc1ccccc1)C(=O)C(=O)NCCNS(=O)(=O)c1ccccc1` (stereo partly drawn), the inhibition in the experiment on Proteasome [3] came out at 48%.

Consider `CC(C)(C)OC(=O)N[C@@H](Cc1ccccc1)C(=O)C(=O)NCCNS(=O)(=O)c1ccccc1`, for which, in the experiment on Proteasome [4], the inhibition amounted to 14%.

Compound `CS(=O)(=O)NCCCC[C@H](NC(=O)C(CCCCCCCCN1C(=O)c2ccccc2C1=O)C1CCCC1)C(=O)N[C@@H](Cc1ccccc1)C(=O)C(=O)NCCNS(=O)(=O)c1ccccc1` (stereo partly drawn) showed a pKi at Proteasome [2] of 7.39.

Take `CCNC(=O)C(=O)[C@H](Cc1ccccc1)NC(=O)[C@H](CCC/N=C(\N)N[N+](=O)[O-])NC(=O)C(CCCCCCCCN1C(=O)c2ccccc2C1=O)C1CCCC1` (stereo partly drawn): the negative logarithm of the Ki (pKi) on Proteasome [2] was 7.92.

Regarding `N[C@@H](Cc1ccccc1)C(=O)C(=O)NCCNS(=O)(=O)c1ccccc1`, the inhibition in the experiment on Proteasome [4] is 12%.
